{"source": "patent US6130228A", "about": "“Polycyclic compounds” (priority 1995, dated 2000)", "key": {"[1]": {"target": "T1, Acetylcholinesterase (AChE) (Rattus norvegicus, UniProt P37136)", "T1 construct": "The brain was removed and homogenised; from tissue; host or cells: rat brain (male Sprague Dawley), Triton X100 detergent supernatant of the EDTA-buffer pellet", "T1 sequence (P37136 32-614)": "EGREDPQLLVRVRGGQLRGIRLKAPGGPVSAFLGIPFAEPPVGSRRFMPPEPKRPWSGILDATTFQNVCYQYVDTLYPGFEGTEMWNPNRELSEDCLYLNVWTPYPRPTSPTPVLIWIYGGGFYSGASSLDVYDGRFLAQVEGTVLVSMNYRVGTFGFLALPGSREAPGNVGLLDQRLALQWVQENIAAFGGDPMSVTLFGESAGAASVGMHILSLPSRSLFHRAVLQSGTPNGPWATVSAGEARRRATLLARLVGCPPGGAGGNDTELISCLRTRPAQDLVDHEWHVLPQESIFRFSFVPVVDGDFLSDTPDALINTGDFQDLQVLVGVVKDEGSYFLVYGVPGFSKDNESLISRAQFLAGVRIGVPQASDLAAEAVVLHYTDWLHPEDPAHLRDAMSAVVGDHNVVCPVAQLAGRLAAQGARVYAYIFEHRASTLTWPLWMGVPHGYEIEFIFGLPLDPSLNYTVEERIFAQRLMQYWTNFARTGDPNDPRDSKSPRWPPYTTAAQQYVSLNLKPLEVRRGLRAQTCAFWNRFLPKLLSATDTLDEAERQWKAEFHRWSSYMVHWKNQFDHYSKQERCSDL", "experiment": "biochemical", "assay_type": "biochemical, Male Rats (Sprague Dawley), brain", "experimental": "(i) Enzyme Source for AChE\n5 Male Rats (Sprague Dawley) weighing approx 250 g were killed by CO2 overdose and cervical dislocation.\nThe brain was removed and homogenised (9 strokes at 840 rpm with 4 volumes of phosphate buffer pH 7.4+10 mM (EDTA) and centrifuged at 27,000 g for 30 minutes.\nThe supernatant was discarded and the pellet resuspended in phosphate buffer with 10 mM EDTA+1- Triton X100 (2 ml/g wet weight). The crude homogenate was centrifuged at 27,000 g for 30-40 minutes.\nThe pellet was discarded and the supernatant was dispensed into 0.5 ml aliquots and stored at -20° C. until required.\nPhosphate Buffer (0.1M. pH 7.4)\nMade up to 500 ml with distilled H2 O, pH 7.4.\n0.5 ml aliquots of brain (enzyme solution) as prepared above were thawed out. 2 ml of phosphate buffer was added to each aliquot. 2 ml of the enzyme solution was incubated with 2 ml PDS for 60 minutes at 0° C. The composition of blank, control and test solutions are given below:\n0.9 ml phosphate buffer (0.1 M, pH 7.4)\n0.85 ml phosphate buffer (0.1M, pH 7.4)\n0.05 ml acetylthiocholine (5.2 mM)\n(§1) 0.8 ml phosphate buffer (0.1M, pH 7.4)\n0.05 ml Acetylthiocholine 5.2 mM\nChange in absorbance was measured at 30 second intervals for 3 minutes at […]. The control was taken as 100%. Inhibitor was calculated as a percentage of the control. A graph of Log of inhibitor conc. versus % control was plotted and IC5. values calculated by interpolation."}, "5-HT (serotonin) uptake": {"tested_on": "5-HT (serotonin) uptake", "assay_type": "biochemical, rat (Sprague Dawley)", "experimental": "One male rat (Sprague Dawley) weighing approx. 200-250 g was sacrificed by cervical dislocation. The brain was dissected out and the cerebellum discarded. The brain was then weighed and 10 ml ice cold sucrose (0.32M) added per gram tissue. […] The pellet was discarded and the supernatant retained (crude synaptosomal preparation).\nAll tubes were set up in triplicate. […] 100 μl of the prepared synaptosomal preparation was added to each tube and incubated for 5 minutes in a shaking water bath at 37° C. Any reaction was stopped by plunging the tubes into an ice water bath. ^3 H NA (10^-7 M) or ^3 H 5-HT ([…]) was added to each tube and incubated for 5 minutes in a shaking water bath at 37° C. Any reaction was stopped by plunging the tubes into an ice-water bath. Accumulated monoamines were collected using a Brandell Cell Harvester under mild vacuum. Filters were rinsed (2×) using 4 ml of ice-cold 0.9% saline. Scintillation fluid was added (4 ml/tube). Radioactivity was measured on a scintillation counter.\nNon-specific values were subtracted from total values. The control was taken as 100%. Drug effects were calculated as a percentage of control inhibitor value. A graph of log of drug concentration versus % control was plotted and IC50 values were calculated by interpolation."}, "[2]": {"target": "T2, Butyrylcholinesterase (BChE) (Equus caballus, UniProt P81908)", "T2 construct": "purchased Sigma c-7512", "T2 sequence (P81908 whole entry)": "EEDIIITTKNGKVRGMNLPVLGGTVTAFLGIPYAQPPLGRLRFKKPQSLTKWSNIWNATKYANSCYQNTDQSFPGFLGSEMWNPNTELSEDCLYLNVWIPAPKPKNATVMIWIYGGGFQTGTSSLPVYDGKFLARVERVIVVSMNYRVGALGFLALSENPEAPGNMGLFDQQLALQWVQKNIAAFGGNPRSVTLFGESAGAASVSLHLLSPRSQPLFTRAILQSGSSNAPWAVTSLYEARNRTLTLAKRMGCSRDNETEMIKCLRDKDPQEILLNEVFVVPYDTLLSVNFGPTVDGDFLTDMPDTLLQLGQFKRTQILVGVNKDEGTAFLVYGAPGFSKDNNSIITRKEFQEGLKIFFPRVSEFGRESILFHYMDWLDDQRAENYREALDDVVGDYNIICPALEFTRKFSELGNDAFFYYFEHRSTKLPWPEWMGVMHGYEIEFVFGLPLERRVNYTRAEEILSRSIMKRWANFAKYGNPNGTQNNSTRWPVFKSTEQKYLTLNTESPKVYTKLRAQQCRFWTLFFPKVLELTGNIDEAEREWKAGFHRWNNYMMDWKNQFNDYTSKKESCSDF", "experiment": "biochemical", "details": "for IC50: Table 2", "experimental": "The following components were utilised:\nPhosphate Buffer (0.1M, pH 7.4)\nMade up to 500 ml with distilled H2 O, pH 7.4\n1 ml of enzyme solution (i), was incubated with 2 ml PDS for 60 minutes at 0° C.\nComponents of the assay blank, controls and test solutions are provided below:\n0.9 ml phosphate buffer (0.1M, pH 7.4)\n0.85 ml phosphate buffer (0.1 M, pH 7.4)\n0.05 ml Acetylthiocholine (5.2 mM)\nas §1\nControl was taken as 100%. Inhibitor was calculated as a percentage of control. A graph of Log of inhibitor conc. versus % control was plotted and IC50 values calculated by interpolation."}, "[3]": {"details": "Table 3, read-out: 5-HT UPTAKE INHIBITION"}}, "note": "Where two headings read alike, the source gives them in different places.", "data": [{"molecule": "Nc1c2c(nc3ccc(F)cc13)CCCC2", "note": "[Compound 18, 9-Amino-7-fluoro-1,2,3,4-tetrahydro-acridine]", "values": [{"measurement": "AChE TACRINE RATIO", "setting": "[1]", "result": 0.390}, {"measurement": "IC50", "setting": "[1]; Table 2, read-out: AChE IC50", "result": 0.2, "unit": "µM"}, {"measurement": "5-HT UPTAKE INHIBITION TACRINE RATIO", "setting": "5-HT (serotonin) uptake", "result": 3.304}, {"measurement": "IC50", "setting": "5-HT (serotonin) uptake; [3]", "result": 2.3, "unit": "µM"}, {"measurement": "BChE TACRINE RATIO", "setting": "[2]", "result": 0.061}, {"measurement": "IC50", "setting": "[2]; read-out: BChE IC50", "result": 0.41, "unit": "µM"}]}, {"molecule": "Nc1c2c(nc3cc(F)cc(F)c13)CCC2", "note": "[Compound 9, 9-Amino-6,8-difluoro-2.3-dihydro-1H -cyclopenta[1,2-b] quinoline]", "values": [{"measurement": "AChE TACRINE RATIO", "setting": "[1]", "result": 0.650}, {"measurement": "IC50", "setting": "[1]; Table 2, read-out: AChE IC50", "result": 0.12, "unit": "µM"}, {"measurement": "5-HT UPTAKE INHIBITION TACRINE RATIO", "setting": "5-HT (serotonin) uptake", "result": 0.146}, {"measurement": "IC50", "setting": "5-HT (serotonin) uptake; [3]", "result": 52, "unit": "µM"}, {"measurement": "BChE TACRINE RATIO", "setting": "[2]", "result": 0.018}, {"measurement": "IC50", "setting": "[2]; read-out: BChE IC50", "result": 1.4, "unit": "µM"}]}, {"molecule": "Nc1c2c(nc3ccc(Cl)cc13)-c1ccccc1C2", "note": "[Compound 35, 6-Amino-8-chloro-4,5-benzo-[5H]-cyclopenta-[1,2-b]-quinoline]", "values": [{"measurement": "IC50", "setting": "[1]; Table 2, read-out: AChE IC50", "result": "> 100", "unit": "µM"}, {"measurement": "5-HT UPTAKE INHIBITION TACRINE RATIO", "setting": "5-HT (serotonin) uptake", "result": 0.070}, {"measurement": "IC50", "setting": "5-HT (serotonin) uptake; [3]", "result": 114, "unit": "µM"}]}, {"molecule": "Nc1c2c(nc3ccc(F)cc13)-c1ccccc1C2", "note": "[Compound 34, 6-Amino-8-Fluoro-4,5-benzo-[5H]-cyclopenta-[1,2-b]-quinoline]", "values": [{"measurement": "AChE TACRINE RATIO", "setting": "[1]", "result": 0.030}, {"measurement": "IC50", "setting": "[1]; Table 2, read-out: AChE IC50", "result": 2.9, "unit": "µM"}, {"measurement": "5-HT UPTAKE INHIBITION TACRINE RATIO", "setting": "5-HT (serotonin) uptake", "result": 0.400}, {"measurement": "IC50", "setting": "5-HT (serotonin) uptake; [3]", "result": 18, "unit": "µM"}]}, {"molecule": "c1ccc(CNc2c3c(nc4ccccc24)CCC3)cc1", "note": "[Compound 28, N-(Phenylmethyl)-9-amino-2,3-dihydro-1H-cyclopenta[1,2-b] quinoline]", "values": [{"measurement": "IC50", "setting": "[1]", "result": 39.6, "unit": "µM"}, {"measurement": "AChE TACRINE RATIO", "setting": "[1]; Table 2, relative to tacrine = 1.000", "result": 0.002}, {"measurement": "5-HT UPTAKE INHIBITION TACRINE RATIO", "setting": "5-HT (serotonin) uptake", "result": 1.310}, {"measurement": "IC50", "setting": "5-HT (serotonin) uptake; [3]", "result": 5.8, "unit": "µM"}, {"measurement": "BChE TACRINE RATIO", "setting": "[2]", "result": 0.002}, {"measurement": "IC50", "setting": "[2]; read-out: BChE IC50", "result": 13.8, "unit": "µM"}]}, {"molecule": "COc1ccc2nc3c(c(N)c2c1)Cc1ccccc1-3", "note": "[Compound 36, 6-Amino-8-methoxy-4,5-benzo-[5H]-cyclopenta-[1,2-b]-quinoline]", "values": [{"measurement": "AChE TACRINE RATIO", "setting": "[1]", "result": 0.002}, {"measurement": "IC50", "setting": "[1]; Table 2, read-out: AChE IC50", "result": 47, "unit": "µM"}, {"measurement": "5-HT UPTAKE INHIBITION TACRINE RATIO", "setting": "5-HT (serotonin) uptake", "result": 0.300}, {"measurement": "IC50", "setting": "5-HT (serotonin) uptake; [3]", "result": 29, "unit": "µM"}]}, {"molecule": "Cc1cccc2c(N)c3c(nc12)CCC3", "note": "[Compound 21, 9-Amino-5-methyl-2.3-dihydro-1H -cyclopenta[1,2-b] quinoline]", "values": [{"measurement": "AChE TACRINE RATIO", "setting": "[1]", "result": 0.024}, {"measurement": "IC50", "setting": "[1]; Table 2, read-out: AChE IC50", "result": 3.3, "unit": "µM"}, {"measurement": "5-HT UPTAKE INHIBITION TACRINE RATIO", "setting": "5-HT (serotonin) uptake", "result": 0.633}, {"measurement": "IC50", "setting": "5-HT (serotonin) uptake; [3]", "result": 12, "unit": "µM"}, {"measurement": "BChE TACRINE RATIO", "setting": "[2]", "result": 0.002}, {"measurement": "IC50", "setting": "[2]; read-out: BChE IC50", "result": 13.8, "unit": "µM"}]}, {"molecule": "Nc1c2c(nc3ccc(F)cc13)-c1ccccc1CC2", "note": "[Compound 27, 7-Amino-9-fluoro-5,6-dihydrobenz[c] acridine]", "values": [{"measurement": "AChE TACRINE RATIO", "setting": "[1]", "result": 0.004}, {"measurement": "IC50", "setting": "[1]; Table 2, read-out: AChE IC50", "result": 18, "unit": "µM"}, {"measurement": "5-HT UPTAKE INHIBITION TACRINE RATIO", "setting": "5-HT (serotonin) uptake", "result": 2.171}, {"measurement": "IC50", "setting": "5-HT (serotonin) uptake; [3]", "result": 3.5, "unit": "µM"}, {"measurement": "IC50", "setting": "[2]; NB = No Block at 100 μM, read-out: BChE IC50 (no block)", "result": "> 100", "unit": "µM"}]}, {"molecule": "Nc1c2c(nc3ccccc13)CCCc1ccccc1-2", "note": "[Compound 7, 13-Amino 6.7 dihydro[1H] benz [7] annuleno [4,5-b]quinoline]", "values": [{"measurement": "IC50", "setting": "[1]; Table 1, form BASE, ±SEM, n = 5, read-out: IC50 AChE", "result": 38.2, "unit": "µM"}, {"measurement": "IC50", "setting": "5-HT (serotonin) uptake; Table 1, form BASE, n = 5, read-out: IC50 5HT UPTAKE", "result": 0.02, "unit": "µM"}]}, {"molecule": "Nc1c2c(nc3c(F)cc(F)cc13)CCC2", "note": "[Compound 32, 9-Amino-5,7-difluoro-2.3dihydro-1H-cyclopenta[1,2b]quinoline]", "values": [{"measurement": "AChE TACRINE RATIO", "setting": "[1]", "result": 0.144}, {"measurement": "IC50", "setting": "[1]; Table 2, read-out: AChE IC50", "result": 0.54, "unit": "µM"}, {"measurement": "BChE TACRINE RATIO", "setting": "[2]", "result": 0.003}, {"measurement": "IC50", "setting": "[2]; read-out: BChE IC50", "result": 8.8, "unit": "µM"}]}, {"molecule": "Cc1cc(C)c2c(N)c3c(nc2c1)CCC3", "note": "[Compound 30, 9-Amino-6,8-dimethyl-2,3-Dihydro-1H -cyclopenta [1,2-b] quinoline]", "values": [{"measurement": "AChE TACRINE RATIO", "setting": "[1]", "result": 0.600}, {"measurement": "IC50", "setting": "[1]; Table 2, read-out: AChE IC50", "result": 0.13, "unit": "µM"}, {"measurement": "5-HT UPTAKE INHIBITION TACRINE RATIO", "setting": "5-HT (serotonin) uptake", "result": 0.938}, {"measurement": "IC50", "setting": "5-HT (serotonin) uptake; [3]", "result": 8.1, "unit": "µM"}, {"measurement": "BChE TACRINE RATIO", "setting": "[2]", "result": 0.035}, {"measurement": "IC50", "setting": "[2]; read-out: BChE IC50", "result": 0.71, "unit": "µM"}]}, {"molecule": "Nc1c2c(nc3ccccc13)Cc1ccccc1CC2", "note": "[Compound 33, 13-amino 1,2-dihydro [1H] benz [7] annuleno [2,3-b] quinoline]", "values": [{"measurement": "AChE TACRINE RATIO", "setting": "[1]", "result": 0.002}, {"measurement": "IC50", "setting": "[1]; Table 2, read-out: AChE IC50", "result": 36, "unit": "µM"}, {"measurement": "5-HT UPTAKE INHIBITION TACRINE RATIO", "setting": "5-HT (serotonin) uptake", "result": 0.400}, {"measurement": "IC50", "setting": "5-HT (serotonin) uptake; [3]", "result": 18, "unit": "µM"}]}, {"molecule": "Nc1c2c(nc3c(F)ccc(F)c13)CCC2", "note": "[Compound 31, 9-Amino-5,8-difluoro-2,3-dihydro-1H-cyclopenta[1.2b] quinoline]", "values": [{"measurement": "AChE TACRINE RATIO", "setting": "[1]", "result": 0.166}, {"measurement": "IC50", "setting": "[1]; Table 2, read-out: AChE IC50", "result": 0.47, "unit": "µM"}, {"measurement": "BChE TACRINE RATIO", "setting": "[2]", "result": 0.005}, {"measurement": "IC50", "setting": "[2]; read-out: BChE IC50", "result": 4.8, "unit": "µM"}]}]}
